Reference: patent publication US9079821B2, “Quinone based nitric oxide donating compounds” (NICOX S.A., priority 2011, dated 2015)

Columns and labels:
[1] = Pharmacokinetic profile in mice (blood 15N-nitrite levels); assay type: in vivo; conditions: CD1 mice
Description: (§1) The absorption and in vivo NO-donating property of the compounds of the invention were assessed by the evaluation of blood ^15N-nitrite levels following oral administration.
Tested Compounds: • 10-(4,5-dimethoxy-2-methyl-3,6-dioxocyclohexa-1,4-dienyl)decyl nitrate-nitrogen-15 which correspond to compound (6) containing nitrogen-15 (^15N-Compound (6)); • 5-isorbide mononitrate containing nitrogen-15 (5-ISM^15N)
Male CD1 mice (n=3/time point) were orally treated with ^15N-Compound (6) at 100 mg/kg or 5-ISM^15N (30 mg/kg). At each time point (5, 10, 15, 30, 60, 120, 240, 360, 480 and 1440 min) blood was taken by cardiac puncture using heparin to avoid blood clotting. Blood samples were immediately protein crushed. Samples were analyzed by LC-MS/MS. ^15N-nitrite levels following oral administration of Compound (6) (100 mg/kg) or 5-ISM^15N (30 mg/kg) in CD1 mice are reported in Table 6.

[2] = Pharmacokinetic profile in rats (blood 15N-nitrite levels); assay type: in vivo, rat
Description: as §1
Tested Compounds: • 5-(2,4,5-trimethyl-3,6-dioxocyclohexa-1,4-dienylpentyl nitrate-nitrogen-15 which corresponds to compound (1) containing nitrogen-15 (^15N-Compound (1)); • 5-(4,5-dimethoxy-2-methyl-3,6-dioxocyclohexa-1,4-dienyl)pentyl nitrate-nitrogen-15 which corresponds to compound (2) containing nitrogen-15 (^15N-Compound (2)); • 4-(2,4,5-trimethyl-3,6-dioxocyclohexa-1,4-dienyl)butyl nitrate-nitrogen-15 which corresponds to compound (3) containing nitrogen-15 (^15N-Compound (3)); • 4-(4,5-dimethoxy-2-methyl-3,6-dioxocyclohexa-1,4-dienyl)butyl nitrate-nitrogen-15 which corresponds to compound (4) containing nitrogen-15 (^15N-Compound (4)); • 10-(2,4,5-trimethyl-3,6-dioxocyclohexa-1,4-dienyl)decyl nitrate-nitrogen-15 which corresponds to compound (5) containing nitrogen-15 (^15N-Compound (5)); • 10-(4,5-dimethoxy-2-methyl-3,6-dioxocyclohexa-1,4-dienyl)decyl nitrate-nitrogen-15 which corresponds to compound (6) containing nitrogen-15 (^15N-Compound (6)); • 3-(3-(4,5-dimethoxy-2-methyl-3,6-dioxocyclohexa-1,4-dienyl)propoxy)propyl nitrate-nitrogen-15 which corresponds to compound (14) containing nitrogen-15 (^15N-Compound (14)); • 6-(2,4,5-trimethyl-3,6-dioxocyclohexa-1,4-dienyl)hexyl nitrate-nitrogen-15 which corresponds to compound (15) containing nitrogen-15 (^15N-Compound (15)); • 6-(4,5-dimethoxy-2-methyl-3,6-dioxocyclohexa-1,4-dienyl)hexyl nitrate-nitrogen-15 which corresponds to compound (16) containing nitrogen-15 (^15N-Compound (16)); • 11-(4,5-dimethoxy-2-methyl-3,6-dioxocyclohexa-1,4-dienyl)-undecane-1,2-diyl dinitrate-nitrogen-15 which corresponds to compound (17) containing nitrogen-15 (^15N-Compound (17)); • 8-(5-methoxy-2,4-dimethyl-3,6-dioxocyclohexa-1,4-dienyl)octyl nitrate-nitrogen—which corresponds to compound (19) containing nitrogen-15 (^15N-Compound (19)); • 2-(3-(4,5-dimethoxy-2-methyl-3,6-dioxocyclohexa-1,4-dienyl)propoxy)ethyl nitrate-nitrogen-15 which corresponds to compound (20) containing nitrogen-15 (^15N-Compound (20)); • 6-(3-methyl-1,4-dioxo-1,4-dihydronaphthalen-2-yl)hexyl nitrate-nitrogen-15 which corresponds to compound (23) containing nitrogen-15 (^15N-Compound (23)); • 3-(3-(3-methyl-1,4-dioxo-1,4-dihydronaphthalen-2-yl)propoxy)propyl nitrate-nitrogen-15 which corresponds to compound (25) containing nitrogen-15 (^15N-Compound (25)); • 6-(5-methoxy-2,4-dimethyl-3,6-dioxocyclohexa-1,4-dienyl)hexyl nitrate-nitrogen-15 which corresponds to compound (28) containing nitrogen-15 (^15N-Compound (28)); • 6-(4-methoxy-2,5-dimethyl-3,6-dioxocyclohexa-1,4-dienyl)hexyl nitrate-nitrogen-15 which corresponds to compound (29) containing nitrogen-15 (^15N-Compound (29)); • 8-(4-methoxy-2,5-dimethyl-3,6-dioxocyclohexa-1,4-dienyl)octyl nitrate-nitrogen-15 which corresponds to compound (32) containing nitrogen-15 (^15N-Compound (32)); • 8-(2,4,5-trimethyl-3,6-dioxocyclohexa-1,4-dienyl)octyl nitrate-nitrogen-15 which corresponds to compound (34) containing nitrogen-15 (^15N-Compound (34)); • 5-isorbide mononitrate containing nitrogen-15 (5-ISM^15N).
Cannulated SD rats were orally treated with ^15N-Compounds (6) at 30 mg/kg, 5-ISM^15N (30 mg/kg), or ^15N-Compounds (1)-(5), 14)-(17), (19), (20), (23), (25), (28), (29), (32), (34) at 30 mg/kg. At each time point (5, 10, 15, 30, 60, 180, 360 and 1440 min) blood was taken using heparin to avoid blood clotting. Blood samples were immediately protein crushed. Samples were analyzed by LC-MS/MS.
In Table 7 are reported ^15N-nitrite blood levels following oral administration of SD rats with 5-ISM^15N (30 mg/kg) or with ^15N-labeled corresponding compounds of the invention (30 mg/kg).

[3] = cannulated SD rats, blood, oral 30 mg/kg

SMILES	15N-nitrite AUC0-24 ([2]; rat, in vivo, po, 30 mg/kg)	15N-nitrite Tmax ([2]; rat, in vivo, po, 30 mg/kg)	Cmax ([2]; rat, in vivo, po, 30 mg/kg)	also measured
O=[N+]([O-])O[C@@H]1CO[C@H]2[C@@H]1OC[C@@H]2O [5-ISM^15N, 5-isorbide mononitrate containing nitrogen-15, reference compound]	7399 µM·min	1 h	20600 ± 4200 nM	15N-nitrite AUC0-24 ([1]; oral 30 mg/kg): 2758 µM·min; 15N-nitrite Tmax ([1]; oral 30 mg/kg): 0.5 h; Cmax ([1]; oral 30 mg/kg): 27500 ± 3000 nM
COC1=C(OC)C(=O)C(CCCCCCCCCCO[15N+](=O)[O-])=C(C)C1=O [^15N-Compound (6), 10-(4,5-dimethoxy-2-methyl-3,6-dioxocyclohexa-1,4-dienyl)decyl nitrate-nitrogen-15]	2469 µM·min	3 h		15N-nitrite AUC0-24 ([1]; oral 100 mg/kg): 1225 µM·min; 15N-nitrite Tmax ([1]; oral 100 mg/kg): 0.5 h
COC1=C(OC)C(=O)C(CCCCCCCCCCO[N+](=O)[O-])=C(C)C1=O [^15N-Compound (6), 10-(4,5-dimethoxy-2-methyl-3,6-dioxocyclohexa-1,4-dienyl)decyl nitrate-nitrogen-15]			2600 ± 200 nM	Cmax ([1]; oral 100 mg/kg): 3100 ± 300 nM
COC1=C(OC)C(=O)C(CCCCCCCCCC(CO[N+](=O)[O-])O[N+](=O)[O-])=C(C)C1=O (stereo not drawn) [^15N-Compound (17), 11-(4,5-dimethoxy-2-methyl-3,6-dioxocyclohexa-1,4-dienyl)-undecane-1,2-diyl dinitrate-nitrogen-15]	1666 µM·min	3 h	2060 ± 120 nM	
COC1=C(OC)C(=O)C(CCCOCCO[15N+](=O)[O-])=C(C)C1=O [^15N-Compound (20), 2-(3-(4,5-dimethoxy-2-methyl-3,6-dioxocyclohexa-1,4-dienyl)propoxy)ethyl nitrate-nitrogen-15]				15N-nitrite AUC0-24 [2, 3]: 1154 µM·min; 15N-nitrite Tmax [2, 3]: 1 h
COC1=C(OC)C(=O)C(CCCOCCO[N+](=O)[O-])=C(C)C1=O [^15N-Compound (20), 2-(3-(4,5-dimethoxy-2-methyl-3,6-dioxocyclohexa-1,4-dienyl)propoxy)ethyl nitrate-nitrogen-15]				Cmax ([2]; cannulated SD rats, blood, oral 30 mg/kg, read-out: 15N-nitrite Cmax): 3580 ± 720 nM
CC1=C(CCCCCCO[15N+](=O)[O-])C(=O)c2ccccc2C1=O [^15N-Compound (23), 6-(3-methyl-1,4-dioxo-1,4-dihydronaphthalen-2-yl)hexyl nitrate-nitrogen-15]	2586 µM·min	3 h		
CC1=C(CCCCCCO[N+](=O)[O-])C(=O)c2ccccc2C1=O [^15N-Compound (23), 6-(3-methyl-1,4-dioxo-1,4-dihydronaphthalen-2-yl)hexyl nitrate-nitrogen-15]			4050 ± 530 nM	
CC1=C(CCCOCCCO[N+](=O)[O-])C(=O)c2ccccc2C1=O [^15N-Compound (25), 3-(3-(3-methyl-1,4-dioxo-1,4-dihydronaphthalen-2-yl)propoxy)propyl nitrate-nitrogen-15]	2010 µM·min	3 h	2890 ± 690 nM	
COC1=C(C)C(=O)C(C)=C(CCCCCCO[N+](=O)[O-])C1=O [^15N-Compound (28), 6-(5-methoxy-2,4-dimethyl-3,6-dioxocyclohexa-1,4-dienyl)hexyl nitrate-nitrogen-15]	1199 µM·min	1 h	3740 ± 420 nM	
COC1=C(C)C(=O)C(CCCCCCO[N+](=O)[O-])=C(C)C1=O [^15N-Compound (29), 6-(4-methoxy-2,5-dimethyl-3,6-dioxocyclohexa-1,4-dienyl)hexyl nitrate-nitrogen-15]	1309 µM·min	1 h	2550 ± 220 nM	
COC1=C(C)C(=O)C(CCCCCCCCO[N+](=O)[O-])=C(C)C1=O [^15N-Compound (32), 8-(4-methoxy-2,5-dimethyl-3,6-dioxocyclohexa-1,4-dienyl)octyl nitrate-nitrogen-15]	1892 µM·min	3 h	1980 ± 570 nM	
CC1=C(C)C(=O)C(CCCCCCCCO[15N+](=O)[O-])=C(C)C1=O [^15N-Compound (34), 8-(2,4,5-trimethyl-3,6-dioxocyclohexa-1,4-dienyl)octyl nitrate-nitrogen-15]	1477 µM·min	3 h		
CC1=C(C)C(=O)C(CCCCCCCCO[N+](=O)[O-])=C(C)C1=O [^15N-Compound (34), 8-(2,4,5-trimethyl-3,6-dioxocyclohexa-1,4-dienyl)octyl nitrate-nitrogen-15]			2800 ± 250 nM	
